Experimental data taken from the OligoGym collection.
Values joined by “and” are separate entries in the source; they are usually repeats but may differ in a detail not shown here. Identical values can stand only once. HELM strings list units from the 5' end as sugar, base in round brackets, then linkage (d deoxyribose, r ribose, m 2'-O-methyl, p phosphodiester). Methylation of C is not given here. [moe] = 2'-O-(2-methoxyethyl) (MOE); [cEt] = constrained ethyl (cEt); [sp] = phosphorothioate linkage

Target: HBV
Conditions: ASO

| Substance | target mRNA inhibition (HepG2, 0.07 µM) | also measured |
| --- | --- | --- |
| RNA1{[moe](G)[sp].[moe](A)[sp].[moe](A)[sp].d(G)[sp].d(T)[sp].d(C)[sp].d(C)[sp].d(A)[sp].d(C)[sp].d(C)[sp].d(A)[sp].d(C)[sp].d(G)[sp].[cEt](A)[sp].[cEt](G)[sp].[cEt](T)}$$$$V2.0 | 34% and 33% |  |
| RNA1{[moe](G)[sp].[moe](A)[sp].[moe](G)[sp].[moe](G)[sp].d(C)[sp].d(A)[sp].d(T)[sp].d(A)[sp].d(G)[sp].d(C)[sp].d(A)[sp].d(G)[sp].d(C)[sp].[moe](A)[sp].[moe](G)[sp].[moe](G)}$$$$V2.0 | 45% and 50% |  |
| RNA1{[moe](G)[sp].[moe](A)[sp].[moe](G)[sp].[moe](G)[sp].d(T)[sp].d(G)[sp].d(A)[sp].d(A)[sp].d(G)[sp].d(C)[sp].d(G)[sp].d(A)[sp].d(A)[sp].[moe](G)[sp].[moe](T)[sp].[moe](G)[sp].[moe](C)}$$$$V2.0 | 63% and 54% |  |
| RNA1{[moe](G)[sp].[moe](A)[sp].[moe](G)[sp].d(T)[sp].d(T)[sp].d(C)[sp].d(C)[sp].d(G)[sp].d(C)[sp].d(A)[sp].d(G)[sp].d(T)[sp].[moe](A)[sp].[moe](T)[sp].[moe](G)[sp].[moe](G)[sp].[moe](A)}$$$$V2.0 | 61% and 62% |  |
| RNA1{[moe](G)[sp].[moe](A)[sp].[moe](T)[sp].[moe](G)[sp].[moe](A)[sp].[moe](G)[sp].d(G)[sp].d(C)[sp].d(A)[sp].d(T)[sp].d(A)[sp].d(G)[sp].d(C)[sp].d(A)[sp].d(G)[sp].[moe](C)[sp].[moe](A)}$$$$V2.0 | 63% and 44% |  |
| RNA1{[moe](G)[sp].[moe](A)[sp].[moe](T)[sp].[moe](G)[sp].d(A)[sp].d(G)[sp].d(G)[sp].d(C)[sp].d(A)[sp].d(T)[sp].d(A)[sp].d(G)[sp].d(C)[sp].[moe](A)[sp].[moe](G)[sp].[moe](C)[sp].[moe](A)}$$$$V2.0 | 0% and 13% |  |
| RNA1{[moe](G)[sp].[moe](A)[sp].[moe](T)[sp].d(G)[sp].d(A)[sp].d(G)[sp].d(G)[sp].d(C)[sp].d(A)[sp].d(T)[sp].d(A)[sp].d(G)[sp].[moe](C)[sp].[moe](A)[sp].[moe](G)[sp].[moe](C)[sp].[moe](A)}$$$$V2.0 | 51% |  |
| RNA1{[moe](G)[sp].[moe](A)[sp].[moe](T)[sp].d(G)[sp].d(A)[sp].d(G)[sp].d(G)[sp].d(C)[sp].d(A)[sp].d(T)[sp].d(A)[sp].d(G)[sp].[moe](C)[sp].[moe](A)[sp].[moe](G)[sp].[moe](C)}$$$$V2.0 | 39% and 38% |  |
| RNA1{[moe](G)[sp].[moe](A)[sp].d(A)[sp].d(C)[sp].d(C)[sp].d(A)[sp].d(C)[sp].d(T)[sp].d(G)[sp].d(A)[sp].d(A)[sp].[moe](C)[sp].[moe](A)[sp].[moe](A)[sp].[moe](A)[sp].[moe](T)}$$$$V2.0 | 37% and 25% |  |
| RNA1{[moe](G)[sp].[moe](A)[sp].d(A)[sp].d(C)[sp].d(T)[sp].d(G)[sp].d(G)[sp].d(A)[sp].d(G)[sp].d(C)[sp].d(C)[sp].[moe](A)[sp].[moe](C)[sp].[moe](C)[sp].[moe](A)[sp].[moe](G)[sp].[moe](C)}$$$$V2.0 | 70% and 69% |  |
| RNA1{[moe](G)[sp].[moe](A)[sp].d(A)[sp].d(G)[sp].d(C)[sp].d(G)[sp].d(A)[sp].d(A)[sp].d(G)[sp].d(T)[sp].d(G)[sp].[moe](C)[sp].[moe](A)[sp].[moe](C)[sp].[moe](A)[sp].[moe](C)[sp].[moe](G)}$$$$V2.0 | 79% and 74% |  |
| RNA1{[moe](G)[sp].[moe](A)[sp].d(G)[sp].d(A)[sp].d(A)[sp].d(G)[sp].d(T)[sp].d(C)[sp].d(C)[sp].d(A)[sp].d(C)[sp].[moe](C)[sp].[moe](A)[sp].[moe](C)[sp].[moe](G)[sp].[moe](A)[sp].[moe](G)}$$$$V2.0 | 35% and 21% |  |
| RNA1{[moe](G)[sp].[moe](A)[sp].d(G)[sp].d(G)[sp].d(C)[sp].d(A)[sp].d(T)[sp].d(A)[sp].d(G)[sp].d(C)[sp].d(A)[sp].[moe](G)[sp].[moe](C)[sp].[moe](A)[sp].[moe](G)[sp].[moe](G)[sp].[moe](A)}$$$$V2.0 | 64% and 47% |  |
| RNA1{[moe](G)[sp].[moe](A)[sp].d(G)[sp].d(T)[sp].d(T)[sp].d(C)[sp].d(C)[sp].d(G)[sp].d(C)[sp].d(A)[sp].d(G)[sp].[moe](T)[sp].[moe](A)[sp].[moe](T)[sp].[moe](G)[sp].[moe](G)[sp].[moe](A)}$$$$V2.0 | 78% and 66% |  |
| RNA1{[moe](G)[sp].[moe](A)[sp].d(T)[sp].d(G)[sp].d(A)[sp].d(G)[sp].d(G)[sp].d(C)[sp].d(A)[sp].d(T)[sp].d(A)[sp].[moe](G)[sp].[moe](C)[sp].[moe](A)[sp].[moe](G)[sp].[moe](C)[sp].[moe](A)}$$$$V2.0 | 72% and 65% |  |
| RNA1{[moe](G)[sp].[moe](A)[sp].d(T)[sp].d(G)[sp].d(A)[sp].d(G)[sp].d(G)[sp].d(C)[sp].d(A)[sp].d(T)[sp].d(A)[sp].[moe](G)[sp].[moe](C)[sp].[moe](A)[sp].[moe](G)[sp].[moe](C)}$$$$V2.0 | 57% and 33% |  |
| RNA1{[moe](G)[sp].[moe](C)[sp].[moe](A)[sp].[moe](G)[sp].[moe](A)[sp].d(G)[sp].d(G)[sp].d(T)[sp].d(G)[sp].d(A)[sp].d(A)[sp].d(G)[sp].d(C)[sp].d(G)[sp].[moe](A)[sp].[moe](A)}$$$$V2.0 | 63% and 58% |  |
| RNA1{[moe](G)[sp].[moe](C)[sp].[moe](A)[sp].[moe](G)[sp].d(A)[sp].d(G)[sp].d(G)[sp].d(T)[sp].d(G)[sp].d(A)[sp].d(A)[sp].d(G)[sp].d(C)[sp].[moe](G)[sp].[moe](A)[sp].[moe](A)}$$$$V2.0 | 60% |  |
| RNA1{[moe](G)[sp].[moe](C)[sp].[moe](A)[sp].[moe](T)[sp].d(A)[sp].d(G)[sp].d(C)[sp].d(A)[sp].d(G)[sp].d(C)[sp].d(A)[sp].d(G)[sp].d(G)[sp].[moe](A)[sp].[moe](T)[sp].[moe](G)}$$$$V2.0 | 44% and 56% |  |
| RNA1{[moe](G)[sp].[moe](C)[sp].[moe](A)[sp].d(C)[sp].d(T)[sp].d(A)[sp].d(G)[sp].d(T)[sp].d(A)[sp].d(A)[sp].d(A)[sp].d(C)[sp].[moe](T)[sp].[moe](G)[sp].[moe](A)[sp].[moe](G)[sp].[moe](C)}$$$$V2.0 | 74% and 68% |  |
| RNA1{[moe](G)[sp].[moe](C)[sp].[moe](A)[sp].d(G)[sp].d(A)[sp].d(G)[sp].d(G)[sp].d(T)[sp].d(G)[sp].d(A)[sp].d(A)[sp].d(G)[sp].[moe](C)[sp].[moe](G)[sp].[moe](A)[sp].[moe](A)[sp].[moe](G)}$$$$V2.0 | 75% and 66% |  |
| RNA1{[moe](G)[sp].[moe](C)[sp].[moe](A)[sp].d(G)[sp].d(T)[sp].d(A)[sp].d(T)[sp].d(G)[sp].d(G)[sp].d(A)[sp].d(T)[sp].d(C)[sp].d(G)[sp].[cEt](G)[sp].[cEt](C)[sp].[cEt](A)}$$$$V2.0 | 74% and 85% | target mRNA inhibition (HepG2, 0.0092593 µM): 4%; target mRNA inhibition (HepG2, 0.0277778 µM): 36%; target mRNA inhibition (HepG2, 0.0833333 µM): 58%; target mRNA inhibition (HepG2, 0.25 µM): 84% |
| RNA1{[moe](G)[sp].[moe](C)[sp].[moe](A)[sp].d(T)[sp].d(A)[sp].d(G)[sp].d(C)[sp].d(A)[sp].d(G)[sp].d(C)[sp].d(A)[sp].d(G)[sp].[moe](G)[sp].[moe](A)[sp].[moe](T)[sp].[moe](G)}$$$$V2.0 | 60% and 53% |  |
| RNA1{[moe](G)[sp].[moe](C)[sp].[moe](A)[sp].d(T)[sp].d(A)[sp].d(G)[sp].d(C)[sp].d(A)[sp].d(G)[sp].d(C)[sp].d(A)[sp].d(G)[sp].d(G)[sp].[cEt](A)[sp].[cEt](T)[sp].[cEt](G)}$$$$V2.0 | 67% and 76% |  |
| RNA1{[moe](G)[sp].[moe](G)[sp].[moe](A)[sp].d(G)[sp].d(T)[sp].d(T)[sp].d(C)[sp].d(C)[sp].d(G)[sp].d(C)[sp].d(A)[sp].d(G)[sp].d(T)[sp].[cEt](A)[sp].[cEt](T)[sp].[cEt](G)}$$$$V2.0 | 74% and 82% | target mRNA inhibition (HepG2, 0.0092593 µM): 0%; target mRNA inhibition (HepG2, 0.0277778 µM): 25%; target mRNA inhibition (HepG2, 0.0833333 µM): 53%; target mRNA inhibition (HepG2, 0.25 µM): 72% |
| RNA1{[moe](G)[sp].[moe](G)[sp].[moe](C)[sp].d(A)[sp].d(T)[sp].d(A)[sp].d(G)[sp].d(C)[sp].d(A)[sp].d(G)[sp].d(C)[sp].d(A)[sp].d(G)[sp].[moe](G)[sp].[moe](A)[sp].[moe](T)[sp].[moe](G)}$$$$V2.0 |  | target mRNA inhibition (HepG2, 0.0092593 µM): 11%; target mRNA inhibition (HepG2, 0.009375 µM): 42%; target mRNA inhibition (HepG2, 0.01875 µM): 30%; target mRNA inhibition (HepG2, 0.0277778 µM): 28%; target mRNA inhibition (HepG2, 0.0375 µM): 43%; target mRNA inhibition (HepG2, 0.075 µM): 61%; target mRNA inhibition (HepG2, 0.0833333 µM): 60%; target mRNA inhibition (HepG2, 0.15 µM): 77%; target mRNA inhibition (HepG2, 0.25 µM): 77%; target mRNA inhibition (HepG2, 0.3 µM): 91% |
| RNA1{[moe](G)[sp].[moe](G)[sp].[moe](T)[sp].[moe](G)[sp].[moe](A)[sp].[moe](A)[sp].d(G)[sp].d(C)[sp].d(G)[sp].d(A)[sp].d(A)[sp].d(G)[sp].d(T)[sp].d(G)[sp].d(C)[sp].[moe](A)[sp].[moe](C)}$$$$V2.0 | 85% and 67% |  |
| RNA1{[moe](G)[sp].[moe](T)[sp].[moe](G)[sp].[moe](A)[sp].d(A)[sp].d(G)[sp].d(C)[sp].d(G)[sp].d(A)[sp].d(A)[sp].d(G)[sp].d(T)[sp].d(G)[sp].[moe](C)[sp].[moe](A)[sp].[moe](C)}$$$$V2.0 | 62% and 71% |  |
| RNA1{[moe](G)[sp].[moe](T)[sp].[moe](G)[sp].[moe](C)[sp].[moe](A)[sp].d(G)[sp].d(A)[sp].d(G)[sp].d(G)[sp].d(T)[sp].d(G)[sp].d(A)[sp].d(A)[sp].d(G)[sp].[moe](C)[sp].[moe](G)[sp].[moe](A)}$$$$V2.0 | 68% and 62% |  |
| RNA1{[moe](G)[sp].[moe](T)[sp].[moe](G)[sp].[moe](C)[sp].[moe](A)[sp].d(G)[sp].d(A)[sp].d(G)[sp].d(G)[sp].d(T)[sp].d(G)[sp].d(A)[sp].d(A)[sp].d(G)[sp].[moe](C)[sp].[moe](G)}$$$$V2.0 | 57% and 51% |  |
